The results in this text go back to patent publication US20170209432A1, “LYSINE DEMETHYLASE INHIBITORS FOR MYELOPROLIFERATIVE OR LYMPHOPROLIFERATIVE DISEASES OR DISORDERS” (ORYZON GENOMICS S.A., priority 2011, published 2017).

In assay [1] the target is T1, Human recombinant monoamine oxidase MAO-A (Homo sapiens, UniProt P21397).
T1 construct: purchased Sigma Aldrich
T1 sequence (P21397 1-527): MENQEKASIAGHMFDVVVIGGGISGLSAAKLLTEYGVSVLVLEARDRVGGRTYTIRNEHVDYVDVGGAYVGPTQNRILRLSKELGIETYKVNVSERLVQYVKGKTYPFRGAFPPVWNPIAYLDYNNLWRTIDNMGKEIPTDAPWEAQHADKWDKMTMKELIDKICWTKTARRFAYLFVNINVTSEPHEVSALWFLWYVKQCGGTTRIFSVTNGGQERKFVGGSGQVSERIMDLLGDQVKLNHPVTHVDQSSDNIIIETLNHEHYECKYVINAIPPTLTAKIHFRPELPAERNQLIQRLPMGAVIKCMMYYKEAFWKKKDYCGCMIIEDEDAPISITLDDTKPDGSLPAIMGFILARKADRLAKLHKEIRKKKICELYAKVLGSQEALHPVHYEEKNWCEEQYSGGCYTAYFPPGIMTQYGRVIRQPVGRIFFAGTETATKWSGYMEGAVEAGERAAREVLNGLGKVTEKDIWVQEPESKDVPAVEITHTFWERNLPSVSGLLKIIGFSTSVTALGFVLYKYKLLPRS
Kind of assay: MAO-A inhibition, kynuramine fluorescence assay. Format: biochemical. The source says: (§1) Human recombinant monoamine oxidase proteins MAO-A and MAO-B were purchased from Sigma Aldrich. MAOs catalyze the oxidative deamination of primary, secondary and tertiary amines. In order to monitor MAO enzymatic activities and/or their inhibition rate by inhibitor(s) of interest, a fluorescent-based (inhibitor)-screening assay was set up. 3-(2-Aminophenyl)-3-oxopropanamine (kynuramine dihydrobromide, Sigma Aldrich), a non fluorescent compound was chosen as a substrate. Kynuramine is a non-specific substrate for both MAOs activities. While undergoing oxidative deamination by MAO activities, kynuramine is converted into 4-hydroxyquinoline (4-HQ), a resulting fluorescent product.
The monoamine oxidase activity was estimated by measuring the conversion of kynuramine into 4-hydroxyquinoline. Assays were conducted in 96-well black plates with clear bottom (Corning) in a final volume of 100 μL. The assay buffer was 100 mM HEPES, pH 7.5. Each experiment was performed in triplicate within the same experiment.
Briefly, a fixed amount of MAO (0.25 μg for MAO-A and 0.5 μg for MAO-B) was incubated on ice for 15 minutes in the reaction buffer, in the absence and/or in the presence of various concentrations of inhibitor (e.g., from 0 to 50 μM, depending on the inhibitor strength).
After leaving the enzyme(s) interacting with the inhibitor, 60 to 90 μM of kynuramine was added to each reaction for MAO-B and MAO-A assay respectively, and the reaction was left for 1 hour at 37° C. in the dark. The oxidative deamination of the substrate was stopped by adding 50 μL (v/v) of NaOH 2N. The conversion of kynuramine to 4-hydroxyquinoline, was monitored by fluorescence (excitation at 320 nm, emission at 360 nm) using a microplate reader (Infinite 200, Tecan). Arbitrary units were used to measure levels of fluorescence produced in the absence and/or in the presence of inhibitor.
(§2) The Ki (IC50) of each inhibitor was determined at Vmax/2.

In a further assay the test system is platelets. As to the kind of experiment: Platelet levels in mice after 5 consecutive once daily injections. Format: in vivo, mice (Hsd:Athymic Nude-Foxn1nu). Conditions: blood 60min after last dose. As for the experimental part:
On the fifth day, 60min after the administration, mice were sacrificed and blood was collected in sodium citrate-containing tubes for haemogram analysis. Platelet levels were determined and referred as % of platelets compared with the levels found in mice treated with vehicle. Platelet levels were determined in a standard hematology analyzer (Abacus Junior Vet, from Diatron) following the manufacturer's instructions.
20% 2-hydroxypropyl-β-cyclodextrin in H2O was used as a vehicle. When necessary, 10% DMSO was also added in the vehicle. Each day, compounds were administered in a single intraperitoneal injection with administration volumes of 15 ml/kg.
Mice strain was Hsd:Athymic Nude-Foxn1nu. Animals were maintained in air and temperature controlled cages with regular supply of water and food.

The target of a further assay is LSD1 (Homo sapiens, UniProt O60341). As to the kind of experiment: LSD1 demethylase inhibition, Amplex Red peroxide/peroxidase-coupled assay. Format: biochemical. On the set-up: purchased BPS Bioscience Inc. An excerpt:
Compounds for use in the methods of the invention can be identified by their ability to inhibit LSD1. The ability of the compounds of the invention to inhibit LSD1 can be tested as follows. Human recombinant LSD1 protein was purchased from BPS Bioscience Inc. In order to monitor LSD1 enzymatic activity and/or its inhibition rate by our inhibitor(s) of interest, di-methylated H3-K4 peptide (Millipore) was chosen as a substrate. The demethylase activity was estimated, under aerobic conditions, by measuring the release of H2O2 produced during the catalytic process, using the Amplex® Red peroxide/peroxidase-coupled assay kit (Invitrogen).
Within the experiment, each concentration of inhibitor was tested in triplicate. […] The enzymatic reactions were set up in a 50 mM sodium phosphate, pH 7.4 buffer. At the end of the incubation, Amplex® Red reagent and horseradish peroxidase (HPR) solution were added to the reaction according to the recommendations provided by the supplier (Invitrogen), and left to incubate for 30 extra minutes at room temperature in the dark. A 1 μM H2O2 solution was used as a control of the kit efficiency. The conversion of the Amplex® Red reagent to resorufin due to the presence of H2O2 in the assay, was monitored by fluorescence (excitation at 540 nm, emission at 590 nm) using a microplate reader (Infinite 200, Tecan). Arbitrary units were used to measure level of H2O2 produced in the absence and/or in the presence of inhibitor.
The maximum demethylase activity of LSD1 was obtained in the absence of inhibitor and corrected for background fluorescence in the absence of LSD1. The Ki (IC50) of each inhibitor was estimated at half of the maximum activity.

In assay [2] the test system is K562 chronic myelogenous leukemia cells. As to the kind of experiment: In vitro cytotoxicity, fluorometry-based cell viability, K562. Conditions: Homo sapiens, K562, 72 h. Here is the method: (§3) K562 chronic myelogenous leukemia cells were seeded at different cell densities in 96-well plates. 24 hours later, compounds were added at serial dilutions.
The target in assay [3] is T2, Human recombinant monoamine oxidase MAO-B (Homo sapiens, UniProt P27338).
T2 construct: purchased Sigma Aldrich
T2 sequence (P27338 1-520): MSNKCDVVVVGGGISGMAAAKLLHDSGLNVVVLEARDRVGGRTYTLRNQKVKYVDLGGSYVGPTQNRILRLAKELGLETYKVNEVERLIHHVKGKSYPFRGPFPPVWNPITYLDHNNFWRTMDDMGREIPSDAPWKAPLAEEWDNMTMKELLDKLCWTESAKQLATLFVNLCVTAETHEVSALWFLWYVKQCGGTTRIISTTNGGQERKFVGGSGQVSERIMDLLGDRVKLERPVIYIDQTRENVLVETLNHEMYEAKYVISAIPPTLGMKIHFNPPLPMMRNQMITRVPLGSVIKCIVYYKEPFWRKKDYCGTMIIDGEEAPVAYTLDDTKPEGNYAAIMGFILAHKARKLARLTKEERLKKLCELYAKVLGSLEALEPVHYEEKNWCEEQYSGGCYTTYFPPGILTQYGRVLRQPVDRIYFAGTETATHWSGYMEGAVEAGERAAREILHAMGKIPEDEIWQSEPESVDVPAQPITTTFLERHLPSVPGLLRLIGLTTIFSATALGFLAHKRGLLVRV
Kind of assay: MAO-B inhibition, kynuramine fluorescence assay. The class given is biochemical.
Source text: as §1
The monoamine oxidase activity was estimated by measuring the conversion of kynuramine into 4-hydroxyquinoline. […]
After leaving the enzyme(s) interacting with the inhibitor, 60 to 90 μM of kynuramine was added to each reaction for MAO-B and MAO-A assay respectively, and the reaction was left for 1 hour at 37° C. in the dark. […] The conversion of kynuramine to 4-hydroxyquinoline, was monitored by fluorescence (excitation at 320 nm, emission at 360 nm) using a microplate reader (Infinite 200, Tecan). Arbitrary units were used to measure levels of fluorescence produced in the absence and/or in the presence of inhibitor.
as §2

Assay [4] relates to Jurkat (acute T cell leukemia). Kind of assay: In vitro cytotoxicity, Jurkat. Format: cell-based. Conditions: Homo sapiens, same protocol as K562. Here is the method:
as §3
(§4) Following the same protocol, in vitro cytotoxicity against other hematological cancer cell lines was tested.

For assay [5], the system named is HL-60 (acute promyelocytic leukemia). Kind of assay: In vitro cytotoxicity, HL-60. Format: cell-based. The settings on record: Homo sapiens; HL-60, same protocol as K562. As for the experimental part: as §3, §4
For assay [6], the system named is RPMI-8226 (Multiple myeloma). Kind of assay: In vitro cytotoxicity, RPMI-8226. The class given is cell-based. Conditions: Homo sapiens; RPMI-8226, same protocol as K562. As for the experimental part: as §3, §4
The test system of assay [7] is H3K4 methylation in SH-SY5Y cells. Kind of assay: Western blot for dimethylated H3-K4 in cells grown with compound. Format: cell-based. An excerpt: FIG. 3 Compound Dual-1 Increases Histone Methylation.
B-actin was used as a loading control.

Setting [8] is: 20 mg/kg intraperitoneal once daily for 5 days.
The mark [9] stands for this setting: 40 mg/kg intraperitoneal once daily for 5 days.
Setting [10] is: read-out: EC50 (μM), concentration at which 50% of the cells remain viable, K562, cell density 3xA, 72h after compound addition.
The mark [11] stands for this setting: read-out: EC50 (μM), concentration at which 50% of the cells remain viable, K562, cell density 10xA, 72h after compound addition.
Where [12] appears, read: read-out: EC50 (μM), concentration at which 50% of the cells remain viable, K562, cell density A, 72h after compound addition.
[13] abbreviates: 10 mg/kg intraperitoneal once daily for 5 days.
The mark [14] stands for this setting: 30 mg/kg intraperitoneal once daily for 5 days.
[15] abbreviates: 3 mg/kg intraperitoneal once daily for 5 days.

Each structure is given as a SMILES string. pIC50: −log10 of the molar value. Read-outs that look alike come from different tables or passages of the source.

For orientation: pIC50 means −log10 of the IC50, conventionally taken in molar units. With `NC(=O)CN[C@@H]1C[C@H]1c1ccc(OCc2ccccc2)cc1` [Compound 2], the negative logarithm of the IC50 (pIC50) in assay [1] is less than 5.70; on LSD1, more than 6.70. Also, the “% platelets vs. Vehicle” value with platelets (setting [8]) was 35%; in the assay on platelets (setting [9]), 27%; in the assay with platelets (60 mg/kg intraperitoneal once daily for 5 days) it was 16%.
With `N[C@H]1C[C@@H]1c1ccc(-c2cccc(NS(=O)(=O)c3ccccc3)c2)cc1` [Compound 10], the EC50 was 13.2 µM in [2] (setting [10]), 17.4 µM in assay [2] (setting [11]) and 14.8 µM in assay [2] (setting [12]).
The corresponding values for `CC(C)S(=O)(=O)Nc1cccc(-c2ccc([C@H]3C[C@@H]3N)cn2)c1` [Compound 9] are 57.1 µM, 95.1 µM and 31.5 µM.
A word on the GI50: it is the concentration giving 50% growth inhibition. Lower therefore signals greater sensitivity of the cells. Consider `CC(C)S(=O)(=O)Nc1cccc(-c2ccc([C@H]3C[C@@H]3N)cc2)c1` [Compound 8], for which the pIC50 in assay [1] was less than 6.00; in assay [3], less than 5.00; on LSD1, more than 7.15. Besides, the EC50 in assay [2] (setting [10]) amounted to 16.3 µM; in assay [2] (setting [11]), 19.7 µM; in [2] (setting [12]) it was 17.2 µM. For the same molecule, the concentration for 50% growth inhibition (GI50) in assay [4] turned out to be 18.2 µM; in assay [5], 21.2 µM; in [6] it was 35.6 µM.
As for `NC(=O)CN[C@H]1CC1c1ccc(OCc2ccccc2)cc1` (stereo partly drawn) [Compound 1], the values for the pIC50 (in [1]; against LSD1) were less than 5.70 and more than 6.70, respectively. In [7] (SH-SY5Y cells grown with compound for 1, 2, and 3 days, Dual-1 at 100 μM (FIG. 3)), the “H3K4 methylation in cells (western blot)” value was “increases H3K4 (4 methylation in cells in a time dependent manner”. Also, the “potency at increasing global dimethylated H3K4 levels as compared to tranylcypromine” value in assay [7] (SH-SY5Y cells, Dual-1 at 100 μM, parnate at 250 μM) was not below 10 fold. In addition, the “% platelets vs. Vehicle” value was determined as 91% with platelets (5 mg/kg intraperitoneal once daily for 5 days), 66% in the assay on platelets (setting [13]), 55% in the assay with platelets (setting [8]) and 34% in the assay on platelets (setting [9]).
Regarding `N[C@H]1CC1c1ccc(-c2cccc(O)c2)cc1` (stereo partly drawn) [Compound 6], the negative logarithm of the IC50 (pIC50) was less than 6.00 in [1], less than 6.00 in assay [3] and more than 7.15 at LSD1. Moreover, the results for the “% platelets vs. Vehicle” value in the assay with platelets (17 mg/kg intraperitoneal once daily for 5 days), in the assay with platelets (34 mg/kg intraperitoneal once daily for 5 days) and with platelets (52 mg/kg intraperitoneal once daily for 5 days) were 56%, 46% and 63%, respectively. Besides, the EC50 turned out to be 10.3 µM in [2] (setting [10]), 16.8 µM in [2] (setting [11]) and 16.2 µM in assay [2] (setting [12]).
For `N[C@H]1CCN(CCN[C@H]2C[C@@H]2c2ccc(-c3cccc(C(F)(F)F)c3)cc2)C1` [Compound 5], the “% platelets vs. Vehicle” value is 87% in the assay on platelets (setting [13]) and 63% in the assay on platelets (setting [14]).
Consider `N[C@H]1C[C@@H]1c1ccc(-c2cccc(C(F)(F)F)c2)nc1` [Compound 4], for which the “% platelets vs. Vehicle” value in the assay with platelets (setting [15]) is 87%; in the assay with platelets (9 mg/kg intraperitoneal once daily for 5 days), 30%; in the assay with platelets (setting [13]) it was 19%; in the assay with platelets (18 mg/kg intraperitoneal once daily for 5 days), 19%; in the assay on platelets (setting [14]), 7%; in the assay on platelets (36 mg/kg intraperitoneal once daily for 5 days) it was 11%.
As to `CN1CCN(C(=O)CN[C@H]2C[C@@H]2c2ccc(OCc3ccccc3)cc2)CC1` (racemic) [Compound 3], the “% platelets vs. Vehicle” value in the assay with platelets (1 mg/kg intraperitoneal once daily for 5 days) came to 46%; in the assay with platelets (setting [15]), 16%; in the assay with platelets (setting [13]) it was 5%.
